The values below come from patent US20070197590A1, “SUBSTITUTED DIPIPERIDINE CCR2 ANTAGONISTS” (priority 2006, published 2007).

In one test the target is T1, CCR2 (Homo sapiens, UniProt P41597).
T1 construct: host or cells: THP-1 cells
T1 sequence (P41597 1-360 isoform P41597-2): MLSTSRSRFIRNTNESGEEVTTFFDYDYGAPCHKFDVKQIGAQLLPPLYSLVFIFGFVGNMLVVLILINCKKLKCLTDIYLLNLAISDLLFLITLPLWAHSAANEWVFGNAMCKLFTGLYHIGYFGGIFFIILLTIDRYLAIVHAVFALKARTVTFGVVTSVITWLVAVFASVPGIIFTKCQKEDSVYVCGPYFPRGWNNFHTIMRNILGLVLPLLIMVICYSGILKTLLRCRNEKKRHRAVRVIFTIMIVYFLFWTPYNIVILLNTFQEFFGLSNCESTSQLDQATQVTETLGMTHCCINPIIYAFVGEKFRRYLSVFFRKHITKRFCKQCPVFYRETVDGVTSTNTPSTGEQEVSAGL
Nature of the test: MCP-1 Receptor Binding Assay in THP-1 Cells. The conditions noted are these: THP-1 cells, 0.5 nM 125I labeled MCP-1, 2 hours at 30° C.; read-out: Inhibition of MCP-1 Binding IC50. A digest of the protocol:
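Whole THP-1 cells incubated 2 h at 30° C with 0.5 nM 125I-MCP-1 and varying compound concentrations; bound radioactivity harvested on filters and counted by scintillation. Nonspecific binding with 1 μM cold MCP-1; IC50 for inhibition of binding versus vehicle.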

Test [1] has as its system MCP-1 induced chemotaxis of THP-1 cells. Briefly: MCP-1 Induced Chemotaxis in THP-1 Cells. The format is cell-based. The note with it: Homo sapiens, MCP-1 0.01 μg/mL, 3 hours at 37° C., read-out: Inhibition of MCP-1 Induced Chemotaxis IC50.
The subject of test [2] is MCP-1 induced calcium ion influx in THP-1 cells. Nature of the test: MCP-1 Induced Calcium Mobilization in THP-1 Cells. The note with it: for pIC50: 0.2 μM MCP-1, FLIPR, read-out: Inhibition of MCP-1 Induced Calcium Ion Influx IC50. It is filed as cell-based. The essentials: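 Fluo-3-loaded (5 μM, 45 min) THP-1 cells preincubated 15 min with compound. Calcium change after 0.2 μM MCP-1 addition read by FLIPR relative to vehicle; IC50 values derived.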
A general note: Calcium flux is commonly read through the fluorescence of an indicator in the cells.

Setting [3] is: Homo sapiens, THP-1, THP-1 cells.

pIC50: −log10 of the molar value. Read-outs that look alike come from different tables or passages of the source.

Regarding `COc1ccc(C2CCN(CC(O)C3CCN(C(=S)Nc4ccc(Br)c(F)c4)CC3)CC2)cc1` (stereo not drawn) [Compound 110, 4-{1-hydroxy-2-[4-(4-methoxy-phenyl)-piperidin-1-yl]-ethyl}-piperidine-1-carbothioic acid (4-bromo-3-fluoro-phenyl)-amide], the negative logarithm of the IC50 (pIC50) at CCR2 was 7.05; in test [1] it was 7.15; in test [2] (THP-1 cells), 5.37.

Consider `O=C(/C=C/c1cc(F)c(F)c(F)c1)N1CCC(O)(C(O)CN2CCC(c3ccc(F)cc3)CC2)CC1` (stereo not drawn) [Compound 128], for which the pIC50 at CCR2 is 6.96; in test [1], 6.52; in test [2] (setting [3]), 5.72.

On to `O=C(/C=C/c1cc(F)cc(F)c1)N1CCC(O)(C(O)CN2CCC(c3ccc(F)cc3)CC2)CC1` (stereo not drawn) [Compound 130], for which the pIC50 was 7.00 on CCR2, 6.72 in test [1] and 5.62 in test [2] (setting [3]).

As for `O=C(/C=C/c1cc(F)c(F)c(F)c1)N1CCC(O)(C(O)CN2CCC(c3ccc(C(F)(F)F)cc3)CC2)CC1` (stereo not drawn) [Compound 136], the negative logarithm of the IC50 (pIC50) at CCR2 is 6.85; in test [1], 6.82; in test [2] (setting [3]), 6.68.

Take `O=C(/C=C/c1ccc(F)c(F)c1)N1CCC(O)(C(O)CN2CCC(c3ccc(C(F)(F)F)cc3)CC2)CC1` (stereo not drawn) [Compound 137]: the values for the pIC50 (on CCR2; in test [1]; in test [2] (setting [3])) were 6.59, 6.77 and 5.89, respectively.

With `O=C(/C=C/c1cc(F)cc(F)c1)N1CCC(O)(C(O)CN2CCC(c3ccc(C(F)(F)F)cc3)CC2)CC1` (stereo not drawn) [Compound 138], the pIC50 is 6.68 at CCR2, 7.22 in test [1] and 6.09 in test [2] (setting [3]).

Consider `O=C(Nc1cc(F)cc(F)c1)N1CCC(O)(C(O)CN2CCC(c3ccc(C(F)(F)F)cc3)CC2)CC1` (stereo not drawn) [Compound 142, 4-hydroxy-4-{1-hydroxy-2-[4-(4-trifluoromethyl-phenyl)-piperidin-1 yl]-ethyl}-piperidine-1-carboxylic acid (3,5-difluoro-phenyl)-amide], for which the pIC50 (at CCR2; in test [1]) was 6.59 in each case. Moreover, in test [2] (Homo sapiens, THP-1, test concentration of 25 μM, given where an IC50 value was not obtained, read-out: Inhibition of MCP-1 Induced Calcium Ion Influx, percent inhibition), the inhibition at 25 µM stood at 68%.

For the compound `O=C(/C=C/c1cc(Cl)cc(Cl)c1)N1CCC(O)(C(O)CN2CCC(c3c[nH]c4ccc(N5CCOCC5)cc34)CC2)CC1` (stereo not drawn) [Compound 151], the figures for the pIC50 (on CCR2; in test [1]; in test [2] (setting [3])) were 7.40, 6.80 and 6.29, respectively.

`O=C(/C=C/c1cc(F)c(F)c(F)c1)N1CCC(O)(C(O)CN2CCC(c3c[nH]c4ccc(F)cc34)CC2)CC1` (stereo not drawn) [Compound 155]: the values for the pIC50 (on CCR2; in test [1]; in test [2] (setting [3])) were 7.00, 6.74 and 6.18, respectively.

As to `O=C(/C=C/c1ccc(F)c(F)c1)N1CCC(O)(C(O)CN2CCC(c3c[nH]c4ccc(F)cc34)CC2)CC1` (stereo not drawn) [Compound 156], the pIC50 on CCR2 was 6.92; in test [1] it was 6.44; in test [2] (setting [3]), 5.40.

With `O=C(/C=C/c1cc(F)cc(F)c1)N1CCC(O)(C(O)CN2CCC(c3c[nH]c4ccc(F)cc34)CC2)CC1` (stereo not drawn) [Compound 157], the pIC50 at CCR2 was 6.82; in test [1] it was 6.92; in test [2] (setting [3]), 5.72.

As for `O=C(/C=C/c1cc(F)c(F)c(F)c1)N1CCC(O)(C(O)CN2CCC(c3ccc(Cl)cc3)CC2)CC1` (stereo not drawn) [Compound 163], the pIC50 was 9.70 on CCR2, 8.30 in test [1] and 6.92 in test [2] (setting [3]).

Take `O=C(/C=C/c1cc(F)cc(F)c1)N1CCC(O)(C(O)CN2CCC(c3ccc(Cl)cc3)CC2)CC1` (stereo not drawn) [Compound 164]: the pIC50 was 7.30 on CCR2, 8.70 in test [1] and 7.22 in test [2] (setting [3]).

As for `O=C(Nc1ccc(Cl)c(Cl)c1)N1CCC(O)(C(O)CN2CCC(c3ccc(Cl)cc3)CC2)CC1` (stereo not drawn) [Compound 165, 4-{2-[4-(4-chloro-phenyl)-piperidin-1-yl]-1-hydroxy-ethyl}-4-hydroxy-piperidine-1-carboxylic acid (3,4-dichloro-phenyl)-amide], the pIC50 at CCR2 is 7.30; in test [1], 6.92; in test [2] (setting [3]) it was 6.05.

Take `O=C(Nc1ccc(Cl)c(Cl)c1)N1CCC(O)(C(O)CN2CCC(c3c[nH]c4ccc(F)cc34)CC2)CC1` (stereo not drawn) [Compound 167, 4-{2-[4-(5-fluoro-1H-indol-3-yl)-piperidin-1-yl]-1-hydroxy-ethyl}-4-hydroxy-piperidine-1-carboxylic acid (3,4-dichloro-phenyl)-amide]: the pIC50 on CCR2 was 6.34; in test [1] it was 8.40; in test [2] (setting [3]), 6.03.

Regarding `O=C(Nc1ccc(Cl)c(Cl)c1)N1CCC(O)(C(O)CN2CCC(c3c[nH]c4ccc(N5CCOCC5)cc34)CC2)CC1` (stereo not drawn) [Compound 181, 4-hydroxy-4-{1-hydroxy-2-[4-(5-morpholin-4-yl-1H-indol-3-yl)-piperidin-1-yl]-ethyl}-piperidine-1-carboxylic acid (3,4-dichloro-phenyl)-amide], the pIC50 on CCR2 was 6.57; in test [1] it was 6.74; in test [2] (setting [3]) it was 5.68.

One may read the pIC50 as the negative decadic logarithm of the IC50, by convention in mol/L. For orientation: inhibition means how much of the control response was suppressed.
